The assay deals with T1, human wild-type (WT)-pendrin (Homo sapiens, UniProt O43511).
T1 construct: expressed in transfected cells
T1 sequence (O43511 1-780): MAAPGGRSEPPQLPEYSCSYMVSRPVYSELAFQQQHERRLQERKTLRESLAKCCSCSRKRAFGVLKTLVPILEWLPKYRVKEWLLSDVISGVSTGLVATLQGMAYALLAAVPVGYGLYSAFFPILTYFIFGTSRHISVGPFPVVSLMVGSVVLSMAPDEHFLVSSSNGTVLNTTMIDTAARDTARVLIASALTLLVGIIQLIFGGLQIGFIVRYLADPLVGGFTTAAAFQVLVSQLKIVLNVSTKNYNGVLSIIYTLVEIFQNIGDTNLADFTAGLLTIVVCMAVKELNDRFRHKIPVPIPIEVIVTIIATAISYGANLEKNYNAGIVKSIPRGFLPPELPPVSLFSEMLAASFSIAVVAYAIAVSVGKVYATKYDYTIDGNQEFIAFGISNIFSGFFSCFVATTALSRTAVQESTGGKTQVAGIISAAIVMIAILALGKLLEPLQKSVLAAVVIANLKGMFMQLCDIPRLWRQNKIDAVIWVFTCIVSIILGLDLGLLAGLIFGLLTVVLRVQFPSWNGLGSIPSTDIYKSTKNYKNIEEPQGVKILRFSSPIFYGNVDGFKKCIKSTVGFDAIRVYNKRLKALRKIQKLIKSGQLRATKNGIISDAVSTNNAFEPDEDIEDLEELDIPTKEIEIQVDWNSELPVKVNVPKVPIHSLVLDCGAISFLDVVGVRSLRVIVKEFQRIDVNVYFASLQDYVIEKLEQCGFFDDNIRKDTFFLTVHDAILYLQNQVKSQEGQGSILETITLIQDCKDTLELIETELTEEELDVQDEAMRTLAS
As to the kind of experiment: Pendrin-mediated Cl^−/I^− exchange activity, YFP fluorescence in CHO-K1 cells. It is filed as cell-based. The conditions noted are these: for inhibition at 30 µM: CHO-K1, 30 μM, read-out: Pendrin inhibitory activity at 30 μM (%); for IC50: compounds showing pendrin inhibitory activity of 50% or more at 30 μM, read-out: IC50. How it is done:
Chinese hamster ovary (CHO)-K1 cells were maintained in a DMEM medium containing 10% fetal bovine serum (FBS), 100 units/ml penicillin and 100 100 μg/ml streptomycin. CHO-K1 cells were stably transfected with pcDNA3.1 encoding halide sensor YFP-H148Q/I152L/F46L and human wild-type (WT)-pendrin. For distribution of primary culture of human nasal cavity epithelium (HNE) cells, passage-2 cells were seeded into transwell-transparent culture inserts with a pore size of 0.45 μm (Costar Co., Cambridge, MA) at a density of 2×10^5 cells/cm^2. The cells were maintained in a 1:1 mixture of Dulbecco's modified Eagle's medium (Lonza, Walkersville, MD) and bronchial epithelial growth medium (Lonza) supplemented with the following growth factors according to the manufacturer's instructions. After immersing the cells for the first 7 days, they were exposed to the apical air interface for the remainder of the culture period. After establishment of the air-liquid interface, the cells were used between 14 and 21 days. At all stages of culture, the cells were maintained at 37° C. under 5% CO2 in an air incubator.
CHO-K1 cells expressing human WT pendrin and YFP-F46L/H148Q/I152L were plated on a 96-well microplate at a density of 2×10^4 cells per well and cultured for 48 hours. Each well of the cell cultured 96-well plate was washed with PBS of 200 μL twice and was filled with HEPES buffer solution of 50 μL, respectively. […] After culturing at 37° C. for 10 minutes, the 96-well plate was positioned on FLUOstar Omega microplate reader (BMG Labtech, Ortenberg, Germany) for fluorescence analysis. By continuously (400 ms per point) recording fluorescence for 1 second (base line), each well was individually analyzed for pendrin-mediated I^− inflow, and then at 1 second, 50 μL of NaI-substituted HEPES buffer solution (NaI replacing NaCl) was added using a liquid injector and the YFP fluorescence was recorded for 5 seconds. The initial iodide inflow rate was determined from the initial slope of fluorescence by nonlinear regression, after injection the iodide (See FIG. 1).
For measurement of Cl^−/I^− exchange activity, YFP fluorescence was measured in pendrin and halide sensor YFP expressing CHO-K1 cells. Each well of the cell cultured 96-well plate was washed with PBS of 200 μL twice, and was filled with HEPES buffer solution (140 mM NaCl, 5 mM KCl, 1 mM MgCl2, 1 mM CaCl2, 10 mM glucose and 10 mM HEPES (pH 7.4)), respectively. […] After culturing at 37° C. for 10 minutes, the 96-well plate was positioned on FLUOstar Omega microplate reader (BMG Labtech, Ortenberg, Germany) for fluorescence analysis.
By continuously (400 ms per point) recording fluorescence for 1 second (base line), each well was individually analyzed for pendrin-mediated I^− inflow, and then at 1 second, 50 μL of NaI-substituted HEPES buffer solution (140 mM NaI, 5 mM KCl, 1 mM MgCl2, 1 mM CaCl2, 10 mM glucose and 10 mM HEPES (pH 7.4)) was added using a liquid injector and the YFP fluorescence was recorded for 5 seconds. The initial iodide inflow rate was determined from the initial slope of fluorescence by nonlinear regression, after injection the iodide.

In the case of `COC(=O)c1ccc(C2=NC(=Cc3ccco3)C(=O)O2)cc1` [F31, Methyl 4-(4-(furan-2-ylmethylene)-5-oxo-4,5-dihydrooxazol-2-yl)benzoate], the inhibition at 30 µM was 4.2%.
The same measure, in the same setting: for `COC(=O)c1ccc(C2=NC(=Cc3ccsc3)C(=O)O2)cc1` [F32, Methyl 4-(5-oxo-4-(thiophen-3-ylmethylene)-4,5-dihydrooxazol-2-yl)benzoate] the value was 3.7%.
In the case of `CC(=O)Nc1ccc(C2=NC(=Cc3cccs3)C(=O)O2)cc1` [F33, N-(4-(5-oxo-4-(thiophen-2-ylmethylene)-4,5-dihydrooxazol-2-yl)phenyl)acetamide], the inhibition at 30 µM was found to be 88.7% and the IC50 stood at 9.3 ± 0.68 µM.
For `COc1ccccc1C1=NC(=Cc2cccs2)C(=O)O1` [F34, 2-(2-Methoxyphenyl)-4-(thiophen-2-ylmethylene)oxazol-5 (4H)-one], the inhibition at 30 µM is 82.8% and the concentration for half-maximal inhibition (IC50) was determined as 8.6 ± 0.84 µM.
Turning to `CC(C)(C)NS(=O)(=O)c1ccc(C2=NC(=Cc3cccs3)C(=O)O2)cc1` [F35, N-(tert-butyl)-4-(5-oxo-4-(thiophen-2-ylmethylene)-4,5-dihydrooxazol-2-yl)benzene sulfonamide], the inhibition at 30 µM amounted to 87.2% and the concentration for half-maximal inhibition (IC50) worked out at 11.6 ± 1.25 µM.
`CC(C)NS(=O)(=O)c1ccc(C2=NC(=Cc3cccs3)C(=O)O2)cc1` [F36, N-isopropyl-4-(5-oxo-4-(thiophen-2-ylmethylene)-4,5-dihydrooxazol-2-yl)benzene sulfonamide]: the inhibition at 30 µM came to 89.6% and the IC50 came out at 14.8 ± 2.01 µM.
For `O=C1OC(c2ccc(-c3ccccc3)cc2)=NC1=Cc1cccs1` [F37, 2-([1,1′-biphenyl]-4-yl)-4-(thiophen-2-ylmethylene)oxazol-5 (4H)-one], the inhibition at 30 µM worked out at 3.5%.
Regarding `CC(C)(C)c1ccc(C2=NC(=Cc3ccco3)C(=O)O2)cc1` [F38, 2-(4-(tert-butyl)phenyl)-4-(furan-2-ylmethylene)oxazol-5 (4H)-one], the inhibition at 30 µM is 92.6% and the IC50 is 3.5 ± 0.27 µM.
For `Cn1cc(C=C2N=C(c3ccc(C(C)(C)C)cc3)OC2=O)cn1` [F39, 2-(4-(tert-butyl)phenyl)-4-((1-methyl-1H-pyrazol-4-yl)methylene)oxazol-5(4H)-one], the inhibition at 30 µM turned out to be 58.8% and the 50% inhibitory concentration (IC50) was 25.8 ± 2.16 µM.
Regarding `CC(C)(C)c1ccc(C2=NC(=Cc3cccnc3)C(=O)O2)cc1` [F40, 2-(4-(tert-butyl)phenyl)-4-(pyridin-3-ylmethylene)oxazol-5(4H)-one], the inhibition at 30 µM stood at 92.3%.
Regarding `CC(C)(C)c1ccc(C2=NC(=Cc3ccncc3)C(=O)O2)cc1` [F41, 2-(4-(tert-butyl)phenyl)-4-(pyridin-4-ylmethylene)oxazol-5(4H)-one], the inhibition at 30 µM was 27.5%.
For the compound `O=C1OC(c2ccc(-c3ccccc3)cc2)=NC1=Cc1cccnc1` [F42, 2-([1,1′-biphenyl]-4-yl)-4-(pyridin-3-ylmethylene)oxazol-5(4H)-one], the inhibition at 30 µM turned out to be 4.2%.
For the compound `CSc1ccc(C=C2N=C(c3ccc(C(C)(C)C)cc3)OC2=O)cc1` [F43, 2-(4-(tert-butyl)phenyl)-4-(4-(methylthio)benzylidene)oxazol-5 (4H)-one], the inhibition at 30 µM was found to be 5.4%.
Turning to `CC(C)(C)c1ccc(C2=NC(=Cc3ccccc3)C(=O)O2)cc1` [F44, 4-Benzylidene-2-(4-(tert-butyl)phenyl)oxazol-5 (4H)-one], the inhibition at 30 µM is 3.5%.
As for `O=C1OC(c2ccc(Br)cc2)=NC1=Cc1cccs1` [F45, 2-(4-Bromophenyl)-4-(thiophen-2-ylmethylene)oxazol-5 (4H)-one], the inhibition at 30 µM is 4.6%.
For the compound `CC(C)c1ccc(C2=NC(=Cc3cccs3)C(=O)O2)cc1` [F46, 2-(4-Isopropylphenyl)-4-(thiophen-2-ylmethylene)oxazol-5(4H)-one], the inhibition at 30 µM turned out to be 53.8% and the IC50 was 22.7 ± 2.48 µM.
Consider `CC(C)c1ccc(C2=NC(=Cc3ccsc3)C(=O)O2)cc1` [F47, 2-(4-Isopropylphenyl)-4-(thiophen-3-ylmethylene)oxazol-5(4H)-one], for which the inhibition at 30 µM stood at 33.2%.
As for `O=C1OC(c2ccc(C(F)(F)F)cc2)=NC1=Cc1ccco1` [F48, 4-(Furan-2-ylmethylene)-2-(4-(trifluoromethyl)phenyl)oxazol-5(4H)-one], the inhibition at 30 µM turned out to be 2.4%.
In the case of `CC(C)c1ccc(C2=NC(=Cc3ccco3)C(=O)O2)cc1` [F49, 4-(Furan-2-ylmethylene)-2-(4-isopropylphenyl)oxazol-5 (4H)-one], the inhibition at 30 µM turned out to be 89.1% and the half-inhibitory concentration (IC50) was 3.9 ± 0.36 µM.
Take `O=C1OC(c2ccc(Br)cc2)=NC1=Cc1ccco1` [F50, 2-(4-Bromophenyl)-4-(furan-2-ylmethylene)oxazol-5 (4H)-one]: the inhibition at 30 µM came out at 3.7%.
Turning to `O=C1OC(c2ccc(Br)cc2)=NC1=Cc1ccsc1` [F51, 2-(4-Bromophenyl)-4-(thiophen-3-ylmethylene)oxazol-5(4H)-one], the inhibition at 30 µM was found to be 2.7%.
With `O=C1OC(c2ccc3ccccc3c2)=NC1=Cc1cccs1` [F52, 2-(Naphthalen-2-yl)-4-(thiophen-2-ylmethylene)oxazol-5(4H)-one], the inhibition at 30 µM turned out to be 4.1%.
`CCCCc1ccc(C2=NC(=Cc3cccs3)C(=O)O2)cc1` [F53, 2-(4-Butylphenyl)-4-(thiophen-2-ylmethylene)oxazol-5(4H)-one]: the inhibition at 30 µM was 3.1%.
On to `CCCCc1ccc(C2=NC(=Cc3ccco3)C(=O)O2)cc1` [F54, 2-(4-Butylphenyl)-4-(furan-2-ylmethylene)oxazol-5 (4H)-one], for which the inhibition at 30 µM was determined as 2.6%.
As for `O=C1OC(c2ccc(OC(F)F)cc2)=NC1=Cc1cccs1` [F55, 2-(4-(difluoromethoxy)phenyl)-4-(thiophen-2-ylmethylene)oxazol-5(4H)-one], the inhibition at 30 µM was 3.8%.
In the case of `O=C1OC(c2ccccc2)=NC1=Cc1ccccc1[N+](=O)[O-]` [F57, 4-(2-Nitrobenzylidene)-2-phenyloxazol-5(4H)-one], the inhibition at 30 µM was found to be 16.1%.
In the case of `CC(=O)Oc1ccc(C=C2N=C(c3ccc(C(C)(C)C)cc3)OC2=O)cc1` [F58, 4-((2-(4-(tert-butyl)phenyl)-5-oxooxazol-4 (5H)-ylidene)methyl)phenylacetate], the inhibition at 30 µM turned out to be 2.5%.
Consider `CN(C)c1ccc(C=C2N=C(c3sc4ccccc4c3Cl)OC2=O)cc1` [F59, 2-(3-Chlorobenzo[b]thiophen-2-yl)-4-(4-(dimethylamino)benzylidene)oxazol-5(4H)-one], for which the inhibition at 30 µM worked out at 1.8%.
The same measure, in the same setting: the result for `COc1ccc(C2=NC(=Cc3ccc(C(=O)O)cc3)C(=O)O2)cc1` [F60, 4-((2-(4-Methoxyphenyl)-5-oxooxazol-4(5H)-ylidene)methyl)benzoate] reads 3.1%; that for `O=C1OC(c2ccccc2)=NC1=Cc1cccs1` [F61, 2-Phenyl-4-(thiophen-2-ylmethylene)oxazol-5(4H)-one], 2.2%.

As a reminder, the IC50 is the concentration that gives 50% inhibition.

(Values after patent US12691101B2, “Compound and method for preventing or treating of respiratory diseases comprising the same as an active ingredient” (YONSEI UNIVERSITY, UNIVERSITY - INDUSTRY FOUNDATION (UIF), priority 2019, dated 2026).)
